This is an account of results in patent publication US20080248511A1, “METHODS TO QUENCH LIGHT FROM OPTICAL REACTIONS” (priority 2007, published 2008).

Assay [1] concerns the target T1, Renilla luciferase (Renilla reniformis, UniProt P27652).
T1 sequence (P27652 1-311): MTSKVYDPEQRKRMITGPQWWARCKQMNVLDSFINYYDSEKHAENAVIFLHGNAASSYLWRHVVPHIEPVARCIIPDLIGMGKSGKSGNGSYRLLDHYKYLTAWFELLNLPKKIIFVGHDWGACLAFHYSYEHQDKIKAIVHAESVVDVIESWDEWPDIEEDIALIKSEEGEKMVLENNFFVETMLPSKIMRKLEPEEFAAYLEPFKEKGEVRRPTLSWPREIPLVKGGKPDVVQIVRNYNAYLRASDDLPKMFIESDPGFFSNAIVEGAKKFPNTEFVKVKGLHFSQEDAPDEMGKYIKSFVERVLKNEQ
Description: biochemical. In kind it is biochemical. To be noted: for remaining activity at 0.5 %: read-out: Retained Renilla Luciferase Luminescence (%); for Selectivity Value: retained firefly / retained Renilla, 0.5% detergent. How it is done:
(§1) The retained luminescence for each luciferase was calculated by dividing the luminescence in the presence of the detergent by the luminescence in the absence of the test detergent. The selectivity value for each of the test detergents was determined by dividing the retained firefly luciferase luminescence by the retained Renilla luciferase luminescence.
(§2) A set of detergents (Table 2; Sigma-Aldrich) was added at 0.5% (from a 5% or 10% stock solution) to either Luciferase Assay Reagent (Promega) or Renilla Luciferase Assay Reagent (Promega) and allowed to equilibrate at room temperature.
(§3) The firefly luciferase and Renilla luciferase enzymes were diluted as follows. Firefly luciferase was diluted to 14 ng/ml in Phosphate Buffered Saline (PBS) containing 0.1% of the protein carrier Prionex® (Pentapharm). Renilla luciferase was diluted to 10 ng/ml in 1× Renilla Luciferase Lysis Buffer (Promega) containing 0.1% Prionex®. The Renilla Luciferase Lysis Buffer […] detergent micelles when using the Renilla Luciferase Assay Reagent. In the absence of other detergents, this prevents sequestering of coelenterazine which inhibits Renilla luciferase-mediated luminescence.
(§4) The luciferase reactions were initiated by adding 40 μl of either the firefly or Renilla luciferase enzyme solution to 200 μl of the appropriate reagent solution (firefly luciferase enzyme solution+firefly luciferase reagent solution or Renilla luciferase enzyme solution+Renilla luciferase reagent solution, respectively). The reactions were performed in an opaque white, 96-well plate and luminescence was measured for 0.5 seconds per well using a Turner BioSystems Veritas™ Microplate luminometer. The retained firefly luciferase and Renilla luciferase luminescence, as well as the selectivity values for each detergent, were calculated (Table 2).

Assay [2] concerns the target T2, firefly luciferase (Photinus pyralis, UniProt P08659). The experiment in a line: biochemical. Particulars: for remaining activity at 0.5 %: read-out: Retained Firefly Luciferase Luminescence (%). How it is done: as §1, §2, §3, §4
For assay [3], the target named is T1, Renilla luciferase. Description: Quaternary ammonium/phosphonium detergent screen, Renilla luciferase (Example 5). In kind it is biochemical. To be noted: final conc. 0.03% detergent; for remaining activity at 0.03 % / Retained Renilla Luciferase Luminescence (%): Tergitol NP-9 present; for remaining activity at 0.03 %: read-out: Retained Renilla Luciferase Luminescence (%).

In assay [4] the target is T2, firefly luciferase. Description: Quaternary ammonium/phosphonium detergent screen, firefly luciferase (Example 5). Type of assay: biochemical. Particulars: final conc. 0.03% detergent, Tergitol NP-9 present; for remaining activity at 0.03 %: read-out: Retained Firefly Luciferase Luminescence (%).
The target of assay [5] is T2, firefly luciferase. The assay is described as above. Type of assay: biochemical. Particulars: Tergitol NP-9 present. The procedure: (§5) Each detergent was added at 0.2% to a reagent solution containing 50 mM Tricine pH 8.3, 3.5 mM MgSO4, 1 mM CDTA, 30 mM thiourea and 0.5% Tergitol NP-9. This solution or one not containing a detergent inhibitor was used to resuspend the Bright-Glo™ luciferin substrate (Promega).
(§6) The luciferase reactions were initiated by adding 100 μl of the firefly luciferase or Renilla luciferase enzyme solutions to 100 μl of reagent solution. The reactions were performed as described above. […] The detergent concentrations listed refer to the final concentration in the reaction.

In assay [6] the target is T1, Renilla luciferase. The experiment in a line: Quaternary ammonium/phosphonium detergent screen, Renilla luciferase (Example 5). Type of assay: biochemical. Particulars: for remaining activity at 0.1 % / Retained Renilla Luciferase Luminescence (%): Tergitol NP-9 present. How it is done:
as §5, §6

Where [7] appears, read: 0.5% detergent in Renilla Luciferase Assay Reagent.
[8] abbreviates: 0.5% detergent in Luciferase Assay Reagent.
[9] abbreviates: final conc. 0.10% detergent, read-out: Retained Firefly Luciferase Luminescence (%).
Setting [10] is: final conc. 0.10% detergent, read-out: Retained Renilla Luciferase Luminescence (%).
[11] abbreviates: read-out: Retained Firefly Luciferase Luminescence (%), final conc. 0.10% detergent.
The mark [12] stands for this setting: read-out: Retained Renilla Luciferase Luminescence (%), final conc. 0.10% detergent.

Where two headings read alike, the source gives them in different places.

T2 sequence (P08659 whole entry): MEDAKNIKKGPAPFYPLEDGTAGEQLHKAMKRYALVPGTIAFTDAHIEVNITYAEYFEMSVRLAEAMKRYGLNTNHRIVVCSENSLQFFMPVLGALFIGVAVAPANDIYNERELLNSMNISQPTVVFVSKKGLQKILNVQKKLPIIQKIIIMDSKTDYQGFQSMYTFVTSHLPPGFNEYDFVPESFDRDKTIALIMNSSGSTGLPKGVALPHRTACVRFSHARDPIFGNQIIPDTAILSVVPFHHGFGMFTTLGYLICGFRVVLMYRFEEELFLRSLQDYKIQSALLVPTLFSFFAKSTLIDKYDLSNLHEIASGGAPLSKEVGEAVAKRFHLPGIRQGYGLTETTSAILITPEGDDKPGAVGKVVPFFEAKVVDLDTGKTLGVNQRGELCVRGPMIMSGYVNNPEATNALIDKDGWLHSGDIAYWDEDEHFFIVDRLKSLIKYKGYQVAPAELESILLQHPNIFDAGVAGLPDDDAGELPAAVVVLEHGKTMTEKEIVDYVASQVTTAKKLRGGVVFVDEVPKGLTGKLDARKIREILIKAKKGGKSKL

With `C[N+](C)(C)CCBr.[Br-]` [(2-Bromoethyl)trimethylammonium bromide], the remaining activity at 0.5 % on Renilla luciferase [1] stood at 78.4%; on firefly luciferase [2], 91.4%. The “Selectivity Value” at Renilla luciferase [1] worked out at 1.2.

Take `C[N+](C)(C)CCCBr.[Br-]` [(3-Bromopropyl)trimethylammonium bromide]: the remaining activity at 0.5 % at Renilla luciferase [1] (setting [7]) worked out at 71.6%; on firefly luciferase [2] (setting [8]), 72.2%. The “Selectivity Value” on Renilla luciferase [1] stood at 1.0.

On to `C[N+](C)(C)CCCCCBr.[Br-]` [(5-Bromopentyl)trimethylammonium bromide], for which the results for the remaining activity at 0.5 % at Renilla luciferase [1] (setting [7]) and at firefly luciferase [2] (setting [8]) were 75% and 79.1%, respectively. The “Selectivity Value” on Renilla luciferase [1] is 1.1.

As to `CCCCCCCCCC[N+](C)(C)Cc1ccccc1.[Cl-]` [Benzyldimethyldecylammonium chloride], the figures for the “Selectivity Value” at Renilla luciferase [3] and on Renilla luciferase [6] (final conc. 0.10% detergent) were 6.3 and 112, respectively. The remaining activity at 0.03 % is 18% at Renilla luciferase [3] and 114% at firefly luciferase [4]. Moreover, the remaining activity at 0.1 % at firefly luciferase [5] (setting [9]) stood at 112%; on Renilla luciferase [6] (setting [10]), 1%.

As for `CCCCCCCCCCCCCCCC[N+](C)(C)Cc1ccccc1.[Cl-]` [Benzyldimethylhexadecylammonium chloride], the results for the “Selectivity Value” on Renilla luciferase [3] and at Renilla luciferase [6] (final conc. 0.10% detergent) were 2.1 and 32.2, respectively. Moreover, the remaining activity at 0.03 % came to 47% on Renilla luciferase [3] and 100% at firefly luciferase [4]. The values for the remaining activity at 0.1 % on firefly luciferase [5] (setting [9]) and on Renilla luciferase [6] (setting [10]) were 97% and 3%, respectively.

With `C[N+](C)(Cc1ccccc1)c1ccccc1.[Br-]` [Benzyldimethylphenylammonium bromide], the “Selectivity Value” at Renilla luciferase [3] and at Renilla luciferase [6] (final conc. 0.10% detergent) was 1.3 in each case. The results for the “Retained Renilla Luciferase Luminescence (%)” value on Renilla luciferase [3] and at Renilla luciferase [6] (final conc. 0.10% detergent) were 78% and 81%, respectively. Further, the results for the “Retained Firefly Luciferase Luminescence (%)” value on firefly luciferase [4] and at firefly luciferase [5] (final conc. 0.10% detergent) were 101% and 107%, respectively.

For `C[N+](C)(Cc1ccccc1)c1ccccc1.[Cl-]` [Benzyldimethylphenylammonium chloride], at Renilla luciferase [3], the “Selectivity Value” is on record as 2.2 and the “Retained Renilla Luciferase Luminescence (%)” value was 38%. Besides, the remaining activity at 0.03 % at firefly luciferase [4] was 82%. Besides, on firefly luciferase [5] (final conc. 0.10% detergent), the “Retained Firefly Luciferase Luminescence (%)” value is given as 55%. Moreover, on Renilla luciferase [6] (final conc. 0.10% detergent), the “Selectivity Value” is 4.6 and the “Retained Renilla Luciferase Luminescence (%)” value came out at 12%.

In the case of `CC[N+](CC)(CC)Cc1ccccc1.[Br-]` [Benzyltriethylammonium bromide], the entries for the “Selectivity Value” at Renilla luciferase [3] and on Renilla luciferase [6] (final conc. 0.10% detergent) were 1.0 and 0.9, respectively. The remaining activity at 0.03 % at Renilla luciferase [3] came out at 95%; on firefly luciferase [4], 97%. Moreover, the remaining activity at 0.1 % at firefly luciferase [5] (setting [11]) was found to be 100%; on Renilla luciferase [6] (setting [12]), 87%.

Turning to `CC[P+](CC)(CC)Cc1ccccc1.[Br-]` [Benzyltriethylphosphonium bromide], the “Selectivity Value” is 1.1 at Renilla luciferase [3] and 2.0 at Renilla luciferase [6] (final conc. 0.10% detergent). Moreover, the remaining activity at 0.03 % on Renilla luciferase [3] stood at 88%; on firefly luciferase [4], 97%. For the same molecule, the remaining activity at 0.1 % is 102% at firefly luciferase [5] (setting [9]) and 51% at Renilla luciferase [6] (setting [10]).

Regarding `C[N+](C)(C)Cc1ccccc1.[Br-]` [Benzyltrimethylammonium bromide], the “Selectivity Value” at Renilla luciferase [3] and at Renilla luciferase [6] (final conc. 0.10% detergent) was 1.0 throughout. For the same molecule, the values for the remaining activity at 0.03 % at Renilla luciferase [3] and at firefly luciferase [4] were 95% and 99%, respectively. The remaining activity at 0.1 % on firefly luciferase [5] (setting [11]) is 100%; at Renilla luciferase [6] (setting [12]), 87%.

On to `C[N+](C)(C)Cc1ccccc1.[I-]` [Bezyltrimethylammonium iodide], for which the “Selectivity Value” was found to be 0.8 on Renilla luciferase [3] and 0.6 at Renilla luciferase [6] (final conc. 0.10% detergent). Further, the results for the “Retained Renilla Luciferase Luminescence (%)” value on Renilla luciferase [3] and at Renilla luciferase [6] (final conc. 0.10% detergent) were 93% and 97%, respectively. Further, the “Retained Firefly Luciferase Luminescence (%)” value at firefly luciferase [4] is recorded as 76%; at firefly luciferase [5] (final conc. 0.10% detergent), 62%.

On to `C[C@H](CCC(=O)NCCC[N+](C)(C)CC(O)CS(=O)(=O)[O-])[C@H]1CC[C@H]2[C@@H]3[C@H](O)C[C@@H]4C[C@H](O)CC[C@]4(C)[C@H]3C[C@H](O)[C@]12C` (stereo partly drawn) [CHAPSO], for which, on Renilla luciferase [1] (setting [7]), the “Retained Renilla Luciferase Luminescence (%)” value was found to be 52.15%. The “Selectivity Value” at Renilla luciferase [1] is recorded as 1.3. Also, the “Retained Firefly Luciferase Luminescence (%)” value on firefly luciferase [2] (setting [8]) amounted to 70.07%.

For `C[C@H](CCC(=O)NCCC[N+](C)(C)CCCS(=O)(=O)[O-])[C@H]1CC[C@H]2[C@@H]3[C@H](O)C[C@@H]4C[C@H](O)CC[C@]4(C)[C@H]3C[C@H](O)[C@]12C` [CHAPS], the “Retained Renilla Luciferase Luminescence (%)” value on Renilla luciferase [1] (setting [7]) came out at 47.29%. The “Selectivity Value” on Renilla luciferase [1] was determined as 1.6. At firefly luciferase [2] (setting [8]), the “Retained Firefly Luciferase Luminescence (%)” value was determined as 73.84%.

Consider `C[P+](C)(Cc1ccc([N+](=O)[O-])cc1)c1ccccc1.[Br-]` [Dimethyl(4-nitrobenzyl)phenylphosphonium bromide], for which the “Selectivity Value” came out at 1.3 on Renilla luciferase [3] and 2.2 at Renilla luciferase [6] (final conc. 0.10% detergent). Also, the remaining activity at 0.03 % at Renilla luciferase [3] came to 78%; at firefly luciferase [4], 99%. In addition, the results for the remaining activity at 0.1 % on firefly luciferase [5] (setting [9]) and on Renilla luciferase [6] (setting [10]) were 106% and 49%, respectively.

`CC[N+](C)(C)c1cccc(O)c1` [Edrophonium chloride]: the “Selectivity Value” on Renilla luciferase [3] came to 1.0; at Renilla luciferase [6] (final conc. 0.10% detergent), 1.1. The remaining activity at 0.03 % at Renilla luciferase [3] was found to be 93%; at firefly luciferase [4], 98%. Besides, the figures for the remaining activity at 0.1 % on firefly luciferase [5] (setting [9]) and at Renilla luciferase [6] (setting [10]) were 102% and 89%, respectively.

`C[N+](C)(C)CCCCCC[N+](C)(C)C` [Hexamethonium bromide]: the remaining activity at 0.5 % came to 91% at Renilla luciferase [1] (setting [7]) and 96% on firefly luciferase [2] (setting [8]). For the same molecule, at Renilla luciferase [1], the “Selectivity Value” is 1.1.

Regarding `C=C(C)[P+](C)(c1ccccc1)c1ccccc1.[I-]` [Isopropenylmethyldiphenylphosphonium iodide], the “Selectivity Value” on Renilla luciferase [3] is 1.2; at Renilla luciferase [6] (final conc. 0.10% detergent) it was 2.1. The remaining activity at 0.03 % was 82% on Renilla luciferase [3] and 95% at firefly luciferase [4]. Also, the values for the remaining activity at 0.1 % at firefly luciferase [5] (setting [9]) and at Renilla luciferase [6] (setting [10]) were 109% and 51%, respectively.

As to `C[C@H](CCC(=O)NCCS(=O)(=O)O)[C@H]1CC[C@H]2[C@@H]3CC[C@@H]4C[C@H](O)CC[C@]4(C)[C@H]3CC[C@]12C` [Taurolithocholic acid], the results for the remaining activity at 0.5 % at Renilla luciferase [1] (setting [7]) and on firefly luciferase [2] (setting [8]) were 75% and 81.3%, respectively. In addition, the “Selectivity Value” at Renilla luciferase [1] is recorded as 1.1.

With `CCCCCCCC[N+](CCCCCCCC)(CCCCCCCC)CCCCCCCC.[Br-]` [Tetraoctylammonium bromide], the remaining activity at 0.5 % on Renilla luciferase [1] (setting [7]) stood at 43.1%; at firefly luciferase [2] (setting [8]), 43.7%. In addition, at Renilla luciferase [1], the “Selectivity Value” amounted to 1.0.

As for “(−)-N-dodecyl-N-methyl ephedrium bromide”, the “Selectivity Value” came out at 7.1 on Renilla luciferase [3] and 102.1 on Renilla luciferase [6] (final conc. 0.10% detergent). Further, the figures for the “Retained Renilla Luciferase Luminescence (%)” value on Renilla luciferase [3] and at Renilla luciferase [6] (final conc. 0.10% detergent) were 15% and 1%, respectively. Besides, the entries for the “Retained Firefly Luciferase Luminescence (%)” value at firefly luciferase [4] and on firefly luciferase [5] (final conc. 0.10% detergent) were 106% and 102%, respectively.
